Patent publication US20100291242A1, “ANTAGONIST AGAINST TOLERANCE TO ANTICANCER DRUGS” (Yoshikazu SUGIMOTO, priority 2004, published 2010)
≈ marks a conversion by molar mass, not a printed value. Read-outs that look alike come from different tables or passages of the source.

Columns and labels:
MCF-7 cells = experiment: Cell growth inhibition test, MCF-7 cells; format: cell-based, human; conditions: for IC50 (concentration at which cell growth is inhibited by 50%) / IC50: 4 days; for IC50: Homo sapiens, MCF7, 96 h, read-out: IC50 (concentration at which cell growth is inhibited by 50%)
Experimental: (§1) A cell growth inhibition test was performed to investigate the sensitivity of MCF-7 cells and MCF-7/MycBCRP cells to SN-38. Respective cells were seeded on 12-well plates (Iwaki) in amounts of 30,000 cells/1 mL/well. Subsequently, the drug, diluted with a medium to different concentrations, was added thereto (1 mL per well). The plates were placed in a 5% CO2 incubator and cultivation was performed at 37° C. for […]. Four days after, a cell solution in each well was added to a beaker containing a […] diluent (9.5 mL, To a Medical Electronics Co.). The number of cells was counted by means of a Sysmex CDA-500 automatic cell counter (To a Medical Electronics Co.).
(§2) A cell growth inhibition test was performed to investigate whether estradiol induces any change in sensitivity of MCF-7 cells and MCF-7/MycBCRP cells to SN-38. Respective cells were seeded on 12-well plates (Iwaki) in amounts of 30,000 cells/1 mL/well. Subsequently, the drug, diluted with a medium to different concentrations, was added thereto (1 mL per well). The final concentration of estradiol was adjusted to 0.03 nM or 3 nM. The plates were placed in a 5% CO2 incubator and cultivation was performed at 37° C. for 4 days. Four days after, a cell solution in each well was added to a beaker containing a […] diluent (9.5 mL, To a Medical Electronics Co.). The number of cells was counted by means of a Sysmex CDA-500 automatic cell counter (To a Medical Electronics Co.). In FIG. 4, the cell count is shown by “% of control,” which was obtained by dividing “the cell count as measured when the drug diluted to have different concentrations was added” by “the cell count as measured when no such drug was added.”

MCF-7/MycBCRP cells = experiment: Cell growth inhibition test, MCF-7/MycBCRP cells; format: cell-based, human; conditions: for IC50 (concentration at which cell growth is inhibited by 50%) / IC50: 4 days; for IC50: Homo sapiens, MCF7, 96 h, read-out: IC50 (concentration at which cell growth is inhibited by 50%)
Experimental: The cells were named MCF-7/MycBCRP. […] In each lane, 20 μg of protein was electrophoresed.
as §1, §2

BCRP = conditions: MCF-7 cells
Experimental: Western blotting was performed to investigate the effect of a steroid hormone and a female hormone on MCF-7, A549, and JEG-3 cells, which intrinsically express BCRP at high level, in terms of the expression level of BCRP. […] Afterwards, expression level of BCRP was determined through the Western blotting technique using an anti-BCRP antibody. In each lane, 30 μg of protein was electrophoresed.

p-glycoprotein = experiment: Western blotting of exogenous p-glycoprotein expression in MCF-7/MDR1 cells; format: cell-based, human; conditions: estradiol 3 nM, 4 days, antibody C219

## CCc1c2c(nc3ccc(O)cc13)-c1cc3c(c(=O)n1C2)COC(=O)[C@]3(O)CC [SN-38, 7-ethyl-10-hydroxycamptothecin]
MCF-7 cells
  sensitivity at estradiol 0.03 nM and 3 nM (in words): almost the same level
MCF-7 cells; E2 (estradiol) 0.03 nM
  IC50 (concentration at which cell growth is inhibited by 50%): 0.64 ± 0.06 ng/mL (≈ 1.63 nM)
MCF-7 cells; E2 (estradiol) 3 nM
  IC50 (concentration at which cell growth is inhibited by 50%): 0.50 ± 0.02 ng/mL (≈ 1.27 nM)
MCF-7/MycBCRP cells
  increase in sensitivity at estradiol 3 nM as compared with 0.03 nM: about twice
MCF-7/MycBCRP cells; E2 (estradiol) 0.03 nM
  IC50 (concentration at which cell growth is inhibited by 50%): 2.13 ± 0.19 ng/mL (≈ 5.43 nM)
MCF-7/MycBCRP cells; E2 (estradiol) 3 nM
  IC50 (concentration at which cell growth is inhibited by 50%): 1.09 ± 0.09 ng/mL (≈ 2.78 nM)

## CC[C@]1(O)C[C@H]2CN(CCc3c([nH]c4ccccc34)[C@@](C(=O)OC)(c3cc4c(cc3OC)N(C=O)[C@H]3[C@@](O)(C(=O)OC)[C@H](OC(C)=O)[C@]5(CC)C=CCN6CC[C@]43[C@@H]65)C2)C1 [Vincristine, vincristine]
MCF-7 cells; E2 (estradiol) 0.03 nM
  IC50: 0.64 ± 0.01 ng/mL (≈ 0.776 nM)
MCF-7 cells; E2 (estradiol) 3 nM
  IC50: 0.6 ± 0.02 ng/mL (≈ 0.727 nM)
MCF-7/MycBCRP cells; E2 (estradiol) 0.03 nM
  IC50: 0.68 ± 0.03 ng/mL (≈ 0.824 nM)
MCF-7/MycBCRP cells; E2 (estradiol) 3 nM
  IC50: 0.6 ± 0.02 ng/mL (≈ 0.727 nM)

## CC/C(=C(/CC)c1ccc(O)cc1)c1ccc(O)cc1 [diethylstilbestrol]
BCRP
  effect on expression of endogenous BCRP (in words): suppressive effect

## C[C@]12CC[C@@H]3c4ccc(O)cc4CC[C@H]3[C@@H]1CC[C@@H]2O [estradiol]
p-glycoprotein
  decrease of expression level of exogenous p-glycoprotein: about 20%
